The target in experiment [1] is T1, Muscarinic acetylcholine receptor M1 (Rattus norvegicus, UniProt P08482).
T1 sequence (P08482 whole entry): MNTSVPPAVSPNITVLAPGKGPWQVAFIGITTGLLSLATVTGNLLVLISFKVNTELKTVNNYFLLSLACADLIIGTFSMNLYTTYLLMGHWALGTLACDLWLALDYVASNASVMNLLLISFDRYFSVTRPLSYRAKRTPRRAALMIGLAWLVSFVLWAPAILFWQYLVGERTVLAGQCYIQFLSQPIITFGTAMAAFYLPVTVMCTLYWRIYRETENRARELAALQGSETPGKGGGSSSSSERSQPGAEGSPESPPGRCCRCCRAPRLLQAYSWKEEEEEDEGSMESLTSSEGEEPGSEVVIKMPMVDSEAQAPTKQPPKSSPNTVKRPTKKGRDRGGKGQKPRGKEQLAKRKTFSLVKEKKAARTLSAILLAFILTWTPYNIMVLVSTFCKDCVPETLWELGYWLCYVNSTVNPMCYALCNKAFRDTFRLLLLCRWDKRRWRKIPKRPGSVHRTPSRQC
As to the kind of experiment: In vitro 100 nM cortex affinity to displace [3H]- -pirenzepine providing a measure of muscarinic m1 receptor antagonist affinity.

Experiment [2] deals with T1, Muscarinic acetylcholine receptor M1. As to the kind of experiment: In vitro 100 nM cortex affinity to displace [3H]- -CD providing a measure of muscarinic m1 receptor agonist affinity.
The target in experiment [3] is T2, Muscarinic acetylcholine receptor M1 (Rattus norvegicus) (UniProt P08482).
T2 sequence (whole entry): T1 sequence (P08482 whole entry)
The following applies: Ileum.
Description: In vitro for muscarinic M1 receptor agonist potency in the ileum model as a functional measure of peripheral muscarinic activity.

Experiment [4] addresses T2, Muscarinic acetylcholine receptor M1 (Rattus norvegicus).
Description: In vitro muscarinic agonist potency in the ganglion model as a functional measure of central muscarinic M1 receptor activity.
For experiment [5] the target is unchanged. As to the kind of experiment: Compound was tested in vitro for its muscarinic agonist potency in the ganglion model as a functional measure of central muscarinic m1 receptor activity.
Experiment [6] has the same target. As to the kind of experiment: (§1) Compound was tested in vitro for its muscarinic m1 receptor agonist potency in the ileum model as a functional measure of peripheral muscarinic m1 receptor activity. Type of experiment: tissue-based.
The target of experiment [7] is T1, Muscarinic acetylcholine receptor M1. The experiment is described as §1. Type of experiment: tissue-based. Conditions: read-out: pA2 (converted).
Experiment [8] has the same target. As to the kind of experiment: Compound was tested in vitro for its efficacy in the ileum model as a functional measure of peripheral muscarinic m1 receptor activity. It counts as tissue-based. Conditions: read-out: pA2 (converted).

Structures are written as SMILES.

In the case of `C[C@@H]1OCC2(CN3CCC2C3)O1` (some centres undefined), the values for the Ki in experiment [1] and in experiment [2] were 6400 nM and 180 nM, respectively. Also, the pD2 came out at 5.5 in experiment [3] and 5.7 in experiment [4].
With `CCC1OCC2(CCN(C)CC2)O1` (centres undefined), the inhibitory constant (Ki) (commonly a dissociation constant, usually derived from enzyme kinetics or from competition with a known ligand) in experiment [1] is 1320 nM; in experiment [2] it was 745 nM. In addition, the results for the pD2 in experiment [3] and in experiment [4] were 5 and 5.5, respectively.
Take `CN1CCC2(CC1)COC(C(Cl)(Cl)Cl)O2` (centres undefined): the values for the Ki in experiment [1] and in experiment [2] were 200 nM and 960 nM, respectively.
`C[C@H]1OC[C@@H](C[N+](C)(C)C)O1`: the inhibitory constant (Ki) amounted to 2100 nM in experiment [1] and 6.4 nM in experiment [2]. Also, the figures for the pD2 in experiment [3] and in experiment [4] were 7.5 and 7.8, respectively.
In the case of `CCC1C(=O)CC2(CCN(C)CC2)C1=O` (centres undefined), the results for the Ki in experiment [1] and in experiment [2] were 765 nM and 87 nM, respectively. The pD2 in experiment [3] was found to be 6.1; in experiment [4] it was 6.7.
The corresponding values for `CC1OCC2(CCN(C)CC2)S1` (centres undefined) are 3160 nM, 720 nM, 5.1 and 5.6.
Consider `C[C@@H]1O[C@H](C[N+](C)(C)C)C[C@H]1O`, for which the pD2 in experiment [3] was 6.8; in experiment [4], 7.4.
For the compound `C[C@@H]1OCC2(CCN(C)C2)O1` (stereo in doubt; trans) [listing 1 of 2 here], the inhibition constant Ki was greater than 10000 nM in experiment [1] and 1750 nM in experiment [2].
For the compound `COC1OCC2(CCN(C)CC2)O1` (centres undefined), the Ki is greater than 10000 nM in experiment [1] and 870 nM in experiment [2]. For the same compound, the pD2 in experiment [3] was 4.7; in experiment [4] it was 5.5.
As to `C[C@@H]1OCC2(CN3CCC2CC3)O1` (some centres undefined), the Ki in experiment [1] turned out to be 1570 nM; in experiment [2], 90 nM. The pD2 was 4.8 in experiment [3] and 6 in experiment [4].
As to `C[C@@H]1OCC2(CCN(C)C2)O1` (stereo in doubt; trans) [listing 2 of 2 here], in experiment [3], the pD2 came to 4.5.
On to `CC1C(=O)CC2(CCN(C)CC2)C1=O` (centres undefined), for which the Ki amounted to 4050 nM in experiment [1] and 175 nM in experiment [2]. Besides, the pD2 in experiment [3] was found to be 5.5; in experiment [4] it was 6.2.
For the compound `C[C@@H]1OC2(CS1)CN1CCC2CC1` (some centres undefined), the inhibition constant (Ki) in experiment [1] was 1250 nM; in experiment [2] it was 515 nM. The pD2 in experiment [3] came out at 5.4; in experiment [4] it was 5.7.
Consider `CN1CCC2(CC1)COCO2`, for which the pD2 in experiment [5] and in experiment [3] was 4.6 each time. The inhibition constant Ki is greater than 10000 nM in experiment [1] and 1200 nM in experiment [2].
As to `CC[C@H](C)[C@@H]1NC(=O)[C@H](CCCN=C(N)N)NC(=O)[C@@H](CC(=O)O)NC(=O)[C@H]([C@@H](C)CC)NC(=O)[C@@H](CCCN=C(N)N)NC(=O)CNC(=O)CNC(=O)[C@@H](Cc2ccccc2)NC(=O)[C@H](C)NC(=O)[C@@H](NC(=O)[C@H](CO)NC(=O)[C@@H](N)CO)CSSC[C@@H](C(=O)N2C[C@H](C(=O)N[C@H](CCCN=C(N)N)C(=O)O)Cc3ccccc32)NC1=O`, the pD2 is 4.1 in experiment [3] and less than 4 in experiment [4].
For `CC1OCC2(CCCN(C)C2)O1` (centres undefined), the pD2 in experiment [3] and in experiment [4] was less than 4 each time.
Consider `CC1SCC2(CCN(C)CC2)S1` (centres undefined), for which the inhibitory constant (Ki) is 2100 nM in experiment [1] and 530 nM in experiment [2]. In addition, the pD2 in experiment [3] came out at 4.9; in experiment [4], 5.
With `CC1OC[C@@]2(CN3CCC2C3)O1` (some centres undefined), the pD2 in experiment [5] is 6.5; in experiment [3] it was 5.9. Besides, the inhibition constant Ki amounted to 1950 nM in experiment [1] and 30 nM in experiment [2].
On to `CN1CCC2(CC1)COC(C)(C)O2`, for which the pD2 in experiment [6] and in experiment [4] was less than 4 throughout. Moreover, the inhibition constant (Ki) in experiment [1] and in experiment [2] was greater than 10000 nM each time.
With `CC1OCC2(CC[N+](C)(C)CC2)O1` (centres undefined), the inhibitory constant (Ki) in experiment [1] is 5000 nM; in experiment [2] it was 210 nM. Besides, the pD2 turned out to be 5.2 in experiment [3] and 6.1 in experiment [4].
The corresponding values for `C[C@H]1OC2(CCN(C)C2)CS1` (some centres undefined) are 6700 nM, 585 nM, 5.2 and 5.7.
The corresponding values for `CC1OCC2(CCNCC2)O1` (centres undefined) are greater than 10000 nM, 145 nM, 5.1 and 5.9.
The corresponding values for `C[C@H]1OC2(CS1)CN1CCC2CC1` (some centres undefined) are 430 nM, 105 nM, 4.9 and 6.1.
`C#CC1OCC2(CCN(C)CC2)O1` (centres undefined): the Ki in experiment [1] was found to be 3000 nM; in experiment [2], 295 nM. The results for the pD2 in experiment [3] and in experiment [4] were 5.2 and 5.9, respectively.
As for `CC1OC2(CCN(C)CC2)CS1` (centres undefined), the inhibitory constant (Ki) was 2650 nM in experiment [1] and 185 nM in experiment [2]. Further, the pD2 amounted to 6 in experiment [3] and 6.1 in experiment [4].
Regarding `CN1CCC2(CC1)COC(c1ccccc1)O2` (centres undefined), the Ki in experiment [1] is 620 nM; in experiment [2] it was 2800 nM. For the same compound, in experiment [7], the Kb was 5010 nM.
`C[C@@H]1OCC2(CCN(C)C2)O1` (stereo in doubt; cis) [listing 1 of 2 here]: the Ki was greater than 10000 nM in experiment [1] and 550 nM in experiment [2].
On to `C[C@@H]1OCC2(CCN(C)C2)S1` (some centres undefined), for which the values for the Ki in experiment [1] and in experiment [2] were greater than 10000 nM and 9150 nM, respectively.
On to `C[C@@H]1OCC2(CCN(C)C2)O1` (stereo in doubt; cis) [listing 2 of 2 here], for which the figures for the pD2 in experiment [3] and in experiment [4] were 5.2 and 5.6, respectively.
As to `C[C@H]1OCC2(CN3CCC2C3)O1` (some centres undefined), the inhibition constant (Ki) in experiment [1] was greater than 10000 nM; in experiment [2], 1850 nM. The values for the pD2 in experiment [3] and in experiment [4] were 4.1 and 4.4, respectively.
As for `CN1CCC2(CC1)COC(c1ccccc1)(c1ccccc1)O2`, the Ki amounted to 0.6 nM in experiment [1] and 8.1 nM in experiment [2]. The Kb was 10 nM in experiment [7] and 6.31 nM in experiment [8].

The record behind these values is ChEMBL document CHEMBL1126214, “Muscarinic agonist SAR of azaspirodioxolanes” (Bioorg Med Chem Lett, 1992).
